From the NIST ThermoML archive (doi:10.1016/j.fluid.2009.09.008) come the findings set out here.

Each structure is given as a SMILES string. ± gives the expanded uncertainty stated by the source.

For this data set the following is noted: Liquid, Ebulliometric method (Recirculating still).

For the molecule `FC(C(F)(F)F)C(F)(F)F` [1,1,1,2,3,3,3-heptafluoropropane], the “vapor or sublimation pressure” value runs as follows: (263.15 K) 132.4 ± 1.2 kPa; (278.15 K) 235.2 ± 1.2 kPa; (293.15 K) 389.4 ± 1.2 kPa; (308.15 K) 608.3 ± 1.2 kPa; (323.15 K) 912.1 ± 1.2 kPa.
Consider `FC(F)C(F)(F)F` [pentafluoroethane], for which the “vapor or sublimation pressure” value was determined as 482.4 ± 1.2 kPa (263.15 K); 782.1 ± 1.2 kPa (278.15 K); 1205.6 ± 1.3 kPa (293.15 K); 1773.2 ± 1.3 kPa (308.15 K); 2531.1 ± 1.3 kPa (323.15 K).
For `CCC` [propane], the “vapor or sublimation pressure” value by setting is: (263.15 K) 345.9 ± 1.2 kPa; (278.15 K) 552.7 ± 1.2 kPa; (293.15 K) 839.7 ± 1.2 kPa; (308.15 K) 1217.2 ± 1.2 kPa; (323.15 K) 1714.5 ± 1.3 kPa.

What is called vapor or sublimation pressure is the pressure of vapour in equilibrium with the condensed phase.
